The experiment addresses T1, glucosidase I (Homo sapiens, UniProt Q13724).
T1 construct: endogenous in cells; host or cells: HL60 cells
T1 sequence (Q13724 1-837): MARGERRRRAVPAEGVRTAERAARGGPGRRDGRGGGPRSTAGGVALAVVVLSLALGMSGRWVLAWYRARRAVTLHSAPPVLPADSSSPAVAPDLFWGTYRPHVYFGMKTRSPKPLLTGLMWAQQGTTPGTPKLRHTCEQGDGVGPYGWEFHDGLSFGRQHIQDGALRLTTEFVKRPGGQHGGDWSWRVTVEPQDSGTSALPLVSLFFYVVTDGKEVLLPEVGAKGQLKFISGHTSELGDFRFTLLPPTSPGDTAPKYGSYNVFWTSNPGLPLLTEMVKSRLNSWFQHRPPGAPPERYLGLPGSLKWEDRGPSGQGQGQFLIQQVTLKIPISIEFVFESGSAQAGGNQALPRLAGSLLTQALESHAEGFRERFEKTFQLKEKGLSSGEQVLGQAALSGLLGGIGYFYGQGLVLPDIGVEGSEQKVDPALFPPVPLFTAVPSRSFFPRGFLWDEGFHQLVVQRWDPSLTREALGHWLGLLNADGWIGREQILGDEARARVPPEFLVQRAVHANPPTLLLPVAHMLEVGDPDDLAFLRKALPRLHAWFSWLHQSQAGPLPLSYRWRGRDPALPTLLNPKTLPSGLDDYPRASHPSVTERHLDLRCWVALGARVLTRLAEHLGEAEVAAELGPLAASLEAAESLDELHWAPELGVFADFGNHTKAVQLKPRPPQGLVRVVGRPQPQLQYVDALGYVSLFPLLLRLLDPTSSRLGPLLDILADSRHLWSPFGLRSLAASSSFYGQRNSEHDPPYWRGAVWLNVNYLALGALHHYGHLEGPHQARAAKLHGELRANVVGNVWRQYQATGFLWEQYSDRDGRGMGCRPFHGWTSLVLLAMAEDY
Put plainly: Inhibition of glucosidase I in HL60 cells, free oligosaccharide (G3M5N) analysis by NP-HPLC. The experiment is classed as cell-based. The arrangement: concentration of maximal glucosidase I inhibition in cells: unit not given here. Conditions: 24 h. How it is done: The effect of an ER-glucosidase inhibitor on cells was evaluated using an assay method by modifying known methods. (H. R. Mellor et al., Cellular Effects of Deoxynojirimycin Analogues: Inhibition of N-Linked Oligosaccharide Processing and Generation of Free Glucosylated Oligosaccharides, 381 Biochem. J. 867-875 (2004). The detection of free oligosaccharides following imino sugar treatment to generate misfolded protein that is degraded in the cytosol is an accurate measure of cell ER entry and inhibition of glycoprotein processing of α-glucosidases I and II by imino sugars.
Cells were cultured to high density (×10^7 cells/ml) prior to growth in fresh medium containing NB-DNJ at varying concentrations. The cells were seeded at a lower density so as to achieve a high density at the end of the incubation period. […] The conditions for extraction of FOS were determined to maximize recovery of FOS. […]
ConA-Sepharose purified 2-AA-labeled oligosaccharides were separated by NP-HPLC using a 4.6×250 mm TSKgel Amide-80 column (Anachem, Luton, UK) with slight modifications to known methods. (D. C. Neville, et al.) The chromatography system consisted of a Waters Alliance 2695 separations module and an in-line Waters 474 fluorescence detector set at an excitation wavelength of 360 nm and emission wavelength of 425 nm. […]

For the compound `[N-]=[N+]=Nc1ccc(NCCCCCCN2C[C@H](O)[C@@H](O)[C@H](O)[C@H]2CO)c([N+](=O)[O-])c1` [NAP-DNJ, N—(N′-{4′azido-2′-nitrophenyl)-6-aminohexyl)-deoxynojirimycin], the “concentration of maximal glucosidase I inhibition in cells” value (G3M5N) is recorded as 50-100 ρM. Under “estimation of G3M5N”, the “more potent at inhibiting glucosidase I than NB-DNJ in cells” value is given as 20-50 times.

(Values after patent publication US8975280B2, “Deoxynojirimycin and D-arabinitol analogs and methods of using” (The Chancellor, Masters and Scholars of The University of …, priority 2006, dated 2015).)
